In patent US20260265259A1, “SUBSTITUTED 6-IMIDAZOPYRIDAZINE IL-17A MODULATORS AND USES THEREOF” (DICE ALPHA, INC., priority 2023, published 2026):

Test system: IL-17A/A
Experiment: IL-17A/A HEK-Blue cell assay
Format: cell-based
Settings: HEK-Blue, 20 h, IL-17A/A inhibition, HEK-Blue IL-17A reporter cell line, IL17A/A 5 ng/mL, SEAP read at A630, read-out: AA IC50
Procedure, shortened: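 HEK 293 reporter cells expressing IL-17RA, IL-17RC and Act1, stimulated with 5 ng/mL IL17A/A or IL17A/F for 20 h alongside compound (10 μM to 27 pM, 0.1% DMSO). NFκB-driven SEAP in the medium read at A630 with Quanti-Blue; IC50 from 4-parameter fit.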

SMILES	IC50 [nM]
CCn1nccc1C(=O)N[C@H](c1cn2nc(C[C@H]3C[C@@H](C)CNC3=O)c(C3CCOCC3)cc2n1)C1CCC(F)(F)CC1 [Compound 100, N—((1S)-(4,4-difluorocyclohexyl)(6-(((5R)-5-methyl-2-oxopiperidin-3-yl)methyl)-7-(tetrahydro-2H-pyran-4-yl)imidazo[1,2-b]pyridazin-2-yl)methyl)-1-ethyl-1H-pyrazole-5-carboxamide]	100 to 1000
CCn1nccc1C(=O)N[C@H](c1cn2nc(C[C@H]3C[C@H](C)CNC3=O)c(C3CCOCC3)cc2n1)C1CCC(F)(F)CC1 [Compound 102, N—((1S)-(4,4-difluorocyclohexyl)(6-(((5S)-5-methyl-2-oxopiperidin-3-yl)methyl)-7-(tetrahydro-2H-pyran-4-yl)imidazo[1,2-b]pyridazin-2-yl)methyl)-1-ethyl-1H-pyrazole-5-carboxamide]	100 to 1000
CCn1nccc1C(=O)N[C@H](c1cn2nc(C[C@H]3C[C@@H](C(F)(F)F)CNC3=O)c(CN3CCCCC3)cc2n1)C1CCC(F)(F)CC1 [Compound 107, N—((S)-(4,4-difluorocyclohexyl)(6-(((3R,5R)-2-oxo-5-(trifluoromethyl)piperidin-3-yl)methyl)-7-(piperidin-1-ylmethyl)imidazo[1,2-b]pyridazin-2-yl)methyl)-1-ethyl-1H-pyrazole-5-carboxamide]	< 100
CCn1nccc1C(=O)N[C@H](c1cn2nc(C[C@H]3C[C@@H](C(F)(F)F)CNC3=O)c(CN3CCOCC3)cc2n1)C1CCC(F)(F)CC1 [Compound 108, N—((S)-(4,4-difluorocyclohexyl)(7-(morpholinomethyl)-6-(((3R,5R)-2-oxo-5-(trifluoromethyl)piperidin-3-yl)methyl)imidazo[1,2-b]pyridazin-2-yl)methyl)-1-ethyl-1H-pyrazole-5-carboxamide]	< 100
CCn1nccc1C(=O)N[C@H](c1cn2nc(C[C@H]3C[C@@H](C(F)(F)F)CNC3=O)c(CN3CC(F)(F)C3)cc2n1)C1CCC(F)(F)CC1 [Compound 109, N—((S)-(7-((3,3-difluoroazetidin-1-yl)methyl)-6-(((3R,5R)-2-oxo-5-(trifluoromethyl)piperidin-3-yl)methyl)imidazo[1,2-b]pyridazin-2-yl)(4,4-difluorocyclohexyl)methyl)-1-ethyl-1H-pyrazole-5-carboxamide]	< 100
CCn1nccc1C(=O)N[C@H](c1cn2nc(C[C@H]3C[C@@H](C(F)(F)F)CNC3=O)c([C@@H](C)N(C)CC(F)(F)F)cc2n1)C1CCC(F)(F)CC1 [Compound 110, N-((1S)-(4,4-difluorocyclohexyl)(7-(1-(methyl(2,2,2-trifluoroethyl)amino)ethyl)-6-(((3R,5R)-2-oxo-5-(trifluoromethyl)piperidin-3-yl)methyl)imidazo[1,2-b]pyridazin-2-yl)methyl)-1-ethyl-1H-pyrazole-5-carboxamide]	< 100
CCn1nccc1C(=O)N[C@H](c1cn2nc(C[C@H]3C[C@@H](C(F)(F)F)CNC3=O)c(CN(C)C)cc2n1)C1CCC(F)(F)CC1 [Compound 111, N—((S)-(4,4-difluorocyclohexyl)(7-((dimethylamino)methyl)-6-(((3R,5R)-2-oxo-5-(trifluoromethyl)piperidin-3-yl)methyl)imidazo[1,2-b]pyridazin-2-yl)methyl)-1-ethyl-1H-pyrazole-5-carboxamide]	< 100
CCn1nccc1C(=O)N[C@H](c1cn2nc(C[C@H]3C[C@@H](C(F)(F)F)CNC3=O)c(CNC)cc2n1)C1CCC(F)(F)CC1 [Compound 112, N—((S)-(4,4-difluorocyclohexyl)(7-((methylamino)methyl)-6-(((3R,5R)-2-oxo-5-(trifluoromethyl)piperidin-3-yl)methyl)imidazo[1,2-b]pyridazin-2-yl)methyl)-1-ethyl-1H-pyrazole-5-carboxamide]	< 100
CCn1nccc1C(=O)N[C@H](c1cn2nc(C[C@H]3C[C@@H](C(F)(F)F)CNC3=O)c(CN(C)C3CC3)cc2n1)C1CCC(F)(F)CC1 [Compound 113, N—((S)-(7-((cyclopropyl(methyl)amino)methyl)-6-(((3R,5R)-2-oxo-5-(trifluoromethyl)piperidin-3-yl)methyl)imidazo[1,2-b]pyridazin-2-yl)(4,4-difluorocyclohexyl)methyl)-1-ethyl-1H-pyrazole-5-carboxamide]	< 100

Results, then the compound that gave them:

IC50 [nM]	SMILES
< 100	CCn1nccc1C(=O)N[C@H](c1cn2nc(C[C@H]3C[C@@H](C(F)(F)F)CNC3=O)c(N3CCN(CCOC)CC3)cc2n1)C1CCC(F)(F)CC1 [Compound 99, N—((S)-(4,4-difluorocyclohexyl)(7-(4-(2-methoxyethyl)piperazin-1-yl)-6-(((3R,5R)-2-oxo-5-(trifluoromethyl)piperidin-3-yl)methyl)imidazo[1,2-b]pyridazin-2-yl)methyl)-1-ethyl-1H-pyrazole-5-carboxamide]
< 100	CCn1nccc1C(=O)N[C@H](c1cn2nc(C[C@@H]3C[C@@H](C)CNC3=O)c(C3CCOCC3)cc2n1)C1CCC(F)(F)CC1 [Compound 101, N—((1S)-(4,4-difluorocyclohexyl)(6-(((5R)-5-methyl-2-oxopiperidin-3-yl)methyl)-7-(tetrahydro-2H-pyran-4-yl)imidazo[1,2-b]pyridazin-2-yl)methyl)-1-ethyl-1H-pyrazole-5-carboxamide]
< 100	CCn1nccc1C(=O)N[C@H](c1cn2nc(C[C@@H]3C[C@H](C)CNC3=O)c(C3CCOCC3)cc2n1)C1CCC(F)(F)CC1 [Compound 103, N—((1S)-(4,4-difluorocyclohexyl)(6-(((5S)-5-methyl-2-oxopiperidin-3-yl)methyl)-7-(tetrahydro-2H-pyran-4-yl)imidazo[1,2-b]pyridazin-2-yl)methyl)-1-ethyl-1H-pyrazole-5-carboxamide]
< 100	CCn1nccc1C(=O)N[C@H](c1cn2nc(C[C@H]3C[C@@H](C(F)(F)F)CNC3=O)c(N3CCN4CCOC[C@@H]4C3)cc2n1)C1CCC(F)(F)CC1 [Compound 104, N—((S)-(4,4-difluorocyclohexyl)(7-((S)-hexahydropyrazino[2,1-c][1,4]oxazin-8(1H)-yl)-6-(((3R,5R)-2-oxo-5-(trifluoromethyl)piperidin-3-yl)methyl)imidazo[1,2-b]pyridazin-2-yl)methyl)-1-ethyl-1H-pyrazole-5-carboxamide]
< 100	CCn1nccc1C(=O)N[C@H](c1cn2nc(C[C@H]3C[C@@H](C(F)(F)F)CNC3=O)c(CN3CCC(F)(F)C3)cc2n1)C1CCC(F)(F)CC1 [Compound 105, N—((S)-(4,4-difluorocyclohexyl)(7-((3,3-difluoropyrrolidin-1-yl)methyl)-6-(((3R,5R)-2-oxo-5-(trifluoromethyl)piperidin-3-yl)methyl)imidazo[1,2-b]pyridazin-2-yl)methyl)-1-ethyl-1H-pyrazole-5-carboxamide]
< 100	CCn1nccc1C(=O)N[C@H](c1cn2nc(C[C@H]3C[C@@H](C(F)(F)F)CNC3=O)c(CN3CCCC3)cc2n1)C1CCC(F)(F)CC1 [Compound 106, N—((S)-(4,4-difluorocyclohexyl)(6-(((3R,5R)-2-oxo-5-(trifluoromethyl)piperidin-3-yl)methyl)-7-(pyrrolidin-1-ylmethyl)imidazo[1,2-b]pyridazin-2-yl)methyl)-1-ethyl-1H-pyrazole-5-carboxamide]
